Experimental data published in US12187782B2, “PDL1 peptides for use in cancer vaccines” (IO BIOTECH APS, priority 2016, dated 2025).
No end group written: not given here.

Assays:
splenocytes = test: IFNγ-Elispot of splenocytes from IFNγ-injected mice, stimulated ex vivo with mPDL1 peptides (Example 3); type: cell-based, C56BL/6 mice; settings: splenocytes after prior IFNγ injection; 5 μg/ml peptide ex vivo, 18-20 hours
Procedure: C56BL/6 mice were injected with 1 μg IFNγ in 200 μl PBS i.p (or no injection for control) two days apart (day 0+2) to simulate inflammation. On day 5 the mice were sacrificed and a single cell solution of the removed spleen was made for further analysis by IFNγ-Elispot.
9×10^5 splenocytes/well were stimulated ex vivo in Elispot plates with 5 μg/ml peptides from murine (m)PDL1 for 18-20 hours. Spot count for the peptide stimulated wells was subtracted the background (spot count of wells with no peptide stimulation).
• Following sacrifice of mice, spleen (and draining lymph nodes (dLNs)) were removed. • Spleen and dLNs was smashed through a […] cell strainer into a 50 ml tube with media (RPMI+10% FCS+1% pen/strep) and washed for at 300 G for 5 minutes, repeated for dLNs. Splenocytes was lysed with RBC lysis buffer for 1 min and washed in media twice. • Cells were counted and transferred to IFNγ Ab-coated Elispot plates in cell number of 9×10^5 cells/well. Coating antibody: Anti-mouse IFN-g mAb AN18 (Mabtech cat no. 3321-3-1000). • Stimulatory peptides were added to designated wells in concentrations of 5 μg/ml. Control wells were not stimulated with peptide. • Elispot plates were developed after 18-20 hours. • Detection antibody Anti-mouse IFN-g mAb R4-6A2-Biotin (Mabtech cat no. 3321-6-1000). […]

[1] = test system: PBMCs from malignant melanoma patients; test: Co-stimulation assay: PBMCs stimulated with DCvacc plus peptide, read by intracellular TNFα/IFNγ staining; type: cell-based, human; settings: for CD4+ T cell reactivity toward DCvacc increased by co-stimulation (donors) / CD8+ T cell reactivity toward DCvacc increased by co-stimulation (donors): eight donors, vs control peptide
Procedure: PBMCs from malignant melanoma patients were stimulated with autologous DCvacc with ratio 1:10 DCvacc:PBMCs. […] Second stimulation with DCvacc was performed on day 7 and followed by peptide co-stimulation on day […] (120 U/mL) was added a day after each peptide co-stimulations. A week after second peptide co-stimulation the cultures were analyzed for DCvacc response using intracellular cytokine staining.
For detection of cell subpopulations producing cytokines (IFN-γ and TNF-α), PBMCs that were stimulated with DCvacc and co-stimulated with peptides for two weeks, were stimulated with DCvacc (ratio 1:10 DCvacc:PBMCs) for 5 hours at 37° C. with 5% CO2. GolgiPlug (BD) was added at a dilution of 1:200 after the first hour of incubation. After 4 additional hours cells were washed twice with PBS, stained fluorochrome conjugated antibodies for surface markers (CD3-Amcyan, CD4-PerCP and CD8-Pacific Blue, all from BD). Cells were washed one additional time and thereafter were fixed and permeabilized with Fixation/Permeabilization and Permeabilization Buffer (eBioscience), according to manufacturer's instructions. Cells were subsequently stained with fluorochrome-conjugated antibodies for intracellular cytokines. The following combinations were used: IFN-γ-PE-CY7 (BD), TNF-α-APC (eBioscience). […] Stained cells were analyzed using a BD FACSCanto II flow cytometer and further analysis was performed with BD FacsDiva Software.

[2] = test system: tumor-infiltrating lymphocytes from 7 melanoma patients; test: IFNγ ELISPOT on tumor-infiltrating lymphocytes (Example 2); type: cell-based, human
Excerpt: (§1) The ELISPOT technique enabled screening a high number of peptide antigens for T-cell recognition, despite the availability of relatively few T-cells. We used the ELISPOT assay to quantify peptide-specific, effector cells that secreted IFN-γ, as described in Example 1. We performed the assays according to the guidelines provided by the cancer immunotherapy immunoguiding program (CIP; cimt.eu/cimt/files/dl/cip_guidelines.pdf). To measure T-cell reactivity, nitrocellulose-bottomed 96-well plates (MultiScreen MSIPN4W; Millipore) were coated overnight with the relevant antibodies. The wells were washed and blocked with X-vivo medium for 2 h. The Tumor Infiltrating Lymphoctyes (TILs) were added at different cell concentrations in triplicate wells, with PD-L1 peptides or with control peptide, and incubated overnight. The following day, the wells were washed, and the relevant biotinylated secondary antibody (Mabtech) was added, followed by the avidin-enzyme conjugate (AP-Avidin; Calbiochem/Invitrogen Life Technologies); finally, we added the enzyme substrate, NBT/BCIP (Invitrogen Life Technologies) for visualization. The spots on the developed ELISPOT plates were analyzed on a CTL ImmunoSpot S6 Ultimate-V analyzer with Immunospot software, v5.1.

[3] = test system: cells from spleen and draining lymph nodes; test: IFNγ-Elispot of spleen and dLN cells from DNFB-treated mice, stimulated ex vivo with peptide (Example 4); type: cell-based, C56BL/6 mice; settings: not with control, 5 μg/ml peptide ex vivo
Procedure: A solution of 0.15% 2,4-dinitrofluorobenzene (DNFB; an allergen) in 1:4 olive oil/ace-tone (OOA) (or just OOA as a control) was painted on back of both ears of C56BL/6 mice for 3 consecutive days (days 0-2). On day 5 the mice were sacrificed and a single cell solution of the removed spleen and draining lymph nodes (dLNs) was made for further analysis by IFNγ-Elispot.
8-9×10^5 cells/well were stimulated ex vivo in Elispot plates with 5 μg/ml mPD-L1long1 (mLong1 from Example 3) or mPD-L1short (a part of the mLong1 peptide having the sequence […] (SEQ ID NO: 101)) for 18-20 hours. Spot count for the peptide stimulated wells was subtracted the background (spot count of wells with no peptide stimulation).
(§2) • Following sacrifice of mice, spleen (and draining lymph nodes (dLNs)) were removed. • Spleen and dLNs was smashed through a […] cell strainer into a 50 ml tube with media (RPMI+10% FCS+1% pen/strep) and washed for at 300 G for 5 minutes, repeated for dLNs. Splenocytes was lysed with RBC lysis buffer for 1 min and washed in media twice. • Cells were counted and transferred to IFNγ Ab-coated Elispot plates in cell number of 9×10^5 cells/well. Coating antibody: Anti-mouse IFN-g mAb AN18 (Mabtech cat no. 3321-3-1000). • Stimulatory peptides were added to designated wells in concentrations of 5 μg/ml. Control wells were not stimulated with peptide. • Elispot plates were developed after 18-20 hours. • Detection antibody Anti-mouse IFN-g mAb R4-6A2-Biotin (Mabtech cat no. 3321-6-1000). Avidin-enzyme conjugate (AP-Avidin; Calbiochem/Invitrogen Life Technologies) and enzyme substrate, NBT/BCIP (Invitrogen Life Technologies) used for visualization. • Spot count for peptide-stimulated wells was always subtracted the corresponding wells without peptide stimulation (the background) • Negative values were sat to zero.

[4] = test system: CD8 T-cells specific for the minimal epitope PDL111; test: ELISPOT with PDL111-specific CD8 T cells; type: cell-based, human
Excerpt: as §1
[…] We analysed the reactivity towards PDL111, PDL1242-264 ([…]— PDLong2, SEQ ID NO: 91), 10104.1 (—OH) and 10104.1 (NH). […]

PD-L1-specific T cells = test: Vaccination of mice with mPD-L1long1, IFNγ-Elispot (Example 5); type: in vivo, C56BL/6 mice
Procedure: C56BL/6 mice were vaccinated subcutaneously (s.c) on the lower back with 100 μg mPD-L1long1 (mLong1 from Example 3) with or without Montanide as an adjuvant (only Montanide as a control) at day 0. On day 7 the mice were sacrificed and a single cell solution of the removed spleen was made for further analysis by IFNγ-Elispot.
9×10^5 splenocytes/well were stimulated ex vivo in Elispot plates with 5 μg/ml mPD-L1long1 or mPD-L1short for 18-20 hours. Spot count for the peptide stimulated wells was subtracted the background (spot count of wells with no peptide stimulation).
as §2

[5] = PBMCs before vaccination (baseline)
[6] = peptide-vaccinated mice (100 μg s.c.) compared to adjuvant alone, day 7

## WVLLGSILLFLIVVSTVLLFLRKQV (listed as Mus musculus) [mLong3]
splenocytes
  recognition by T cells, IFNγ-Elispot: most positive results

## FMTYWHLLNAFTVTVPKDL (listed as Homo sapiens) [PDLong1]
[1]; PBMCs after four vaccinations
  CD4+ T cell reactivity toward DCvacc increased by co-stimulation (donors): all donors
  CD8+ T cell reactivity toward DCvacc increased by co-stimulation (donors): five out of eight donors
[1]; [5]
  CD4+ T cell reactivity toward DCvacc increased by co-stimulation (donors): six out of eight donors
  CD8+ T cell reactivity toward DCvacc increased by co-stimulation (donors): seven out of eight donors
[1]; all cultures, P=0.02
  CD4+ T cells reacting against DCvacc compared to control peptide: significantly greater extent
[1]; all cultures, P=0.05
  CD8+ T cells reacting against DCvacc compared to control peptide: significantly greater extent
[1]; cocultured with peptide compared to the control HIV epitope
  number of PBMCs that showed reactivity against DCvacc: increase

## RTHLVILGAILLCLGVALTFIFRLRKGR (not fully specified; listed as Homo sapiens) [IO104.1, positions 238 to 265 of hPD-L1; C terminal acid or amide form]
[2]
  T cell response, IFNγ ELISPOT (patients responding): three of the patients

## GIIFTACCHL (listed as Mus musculus) [mPD-L1short]
[3]
  recognition by dLNs, IFNγ-Elispot: recognized
  recognition by splenocytes, IFNγ-Elispot: recognized

## Arg-Thr-His-Leu-Val-Ile-Leu-Gly-Ala-Ile-Leu-Leu-Cys-Leu-Gly-Val-Ala-Leu-Thr-Phe-Ile-Phe-Arg-Leu-Arg-Lys-Gly-Arg-NH2 (RTHLVILGAILLCLGVALTFIFRLRKGR-NH2) [IO104.1-NH2]
[4]
  reactivity of PDL111-specific CD8 T cells, ELISPOT: able to react

## MRIFAGIIFTACCHLLRA (listed as Mus musculus) [mLong1]
splenocytes
  recognition by T cells, IFNγ-Elispot: most positive results
PD-L1-specific T cells; [6]
  PD-L1-specific T cell response in the draining lymph nodes (DLNs): strong
  PD-L1-specific T cell response in the spleens: strong
PD-L1-specific T cells; vaccinated mice
  PD-L1-specific response by IFNγ Elispot, ex vivo stimulation with mPD-L1long: increased
  PD-L1-specific response by IFNγ Elispot, ex vivo stimulation with mPD-L1 short: increased
[3]
  recognition by dLNs, IFNγ-Elispot: recognized
  recognition by splenocytes, IFNγ-Elispot: recognized

## Arg-Thr-His-Leu-Val-Ile-Leu-Gly-Ala-Ile-Leu-Leu-Cys-Leu-Gly-Val-Ala-Leu-Thr-Phe-Ile-Phe-Arg-Leu-Arg-Lys-Gly-Arg-OH (RTHLVILGAILLCLGVALTFIFRLRKGR-OH) [IO104.1-OH]
[4]
  reactivity of PDL111-specific CD8 T cells, ELISPOT: able to react
